PubChem BioAssay (NCI)
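Grown in 96-well plates, cells were treated for 48 hours with each compound at five concentrations. Insufficient inhibition: endpoint recorded as highest concentration tested. The concentration for 50% growth inhibition is given as GI50. TGI: concentration producing complete growth inhibition.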

Tests used:
Assay in all cases: DTP human tumour cell line panel, 48 h
[1] = test system: MALME-3M melanoma
[2] = test system: PC-3 prostate
[3] = test system: ACHN renal
[4] = test system: HS 578T breast
[5] = test system: SF-268 CNS
[6] = test system: KM12 colon
[7] = test system: SW-620 colon
[8] = test system: HOP-92 NSCLC
[9] = test system: NCI-H23 lung
[10] = test system: SR leukemia
[11] = test system: NCI-H226 lung
[12] = test system: HCT-116 colon
[13] = test system: M14 melanoma
[14] = test system: UO-31 renal
[15] = test system: SF-295 CNS
[16] = test system: HCC-2998 colon
[17] = test system: UACC-257 melanoma
[18] = test system: RPMI-8226 leukemia
[19] = test system: A549 NSCLC
[20] = test system: SNB-19 CNS
[21] = test system: OVCAR-4 ovarian
[22] = test system: U251 CNS
[23] = test system: SNB-75 CNS
[24] = test system: CCRF-CEM leukemia
[25] = test system: MDA-MB-231 breast
[26] = test system: COLO 205 colon
[27] = test system: SF-539 CNS
[28] = test system: RXF 393 renal
[29] = test system: TK-10 renal
[30] = test system: OVCAR-8 ovarian
[31] = test system: UACC-62 melanoma
[32] = test system: HL-60(TB) leukemia
[33] = test system: NCI/ADR-RES ovarian
[34] = test system: LOX IMVI melanoma
[35] = test system: NCI-H460 lung
[36] = test system: HT29 colon
[37] = test system: SN12C renal
[38] = test system: SK-MEL-5 melanoma
[39] = test system: OVCAR-3 ovarian
[40] = test system: A498 renal
[41] = test system: K-562 leukemia
[42] = test system: T-47D breast
[43] = test system: NCI-H522 lung
[44] = test system: DU-145 prostate
[45] = test system: HOP-62 NSCLC
[46] = test system: HCT-15 colon
[47] = test system: SK-MEL-2 melanoma
[48] = test system: SK-MEL-28 melanoma
[49] = test system: CAKI-1 renal
[50] = test system: OVCAR-5 ovarian
[51] = test system: MCF7 breast
[52] = test system: IGROV1 ovarian
[53] = test system: MOLT-4 leukemia
[54] = test system: MDA-MB-435
[55] = test system: EKVX NSCLC
[56] = test system: SK-OV-3 ovarian
[57] = test system: 786-0 renal
[58] = test system: BT-549 breast

In the case of `O=C(Nc1ccc(-n2cc(-c3ccncc3)c(-c3ccc(O)c(Cl)c3)n2)cc1)c1cc(C(F)(F)F)cc(C(F)(F)F)c1`, the GI50 [1] is reported as 4.66 µM, the TGI [1] is reported as 16.7 µM and the GI50 [2] is reported as 5.02 µM. For the same compound, the TGI [2] was over 25 µM, the GI50 [3] was 8.41 µM and the TGI [3] was over 25 µM. The GI50 [4] was 6.1 µM, the TGI [4] was over 25 µM and the GI50 [5] was 9.33 µM. It also gave a TGI [5] of over 25 µM, a GI50 [6] of 7.85 µM and a TGI [6] of over 25 µM. The GI50 [7] was 11.1 µM, the TGI [7] was over 25 µM and the GI50 [8] was 1.04 µM. For the same compound, the TGI [8] was 13.7 µM, the GI50 [9] was 9.8 µM and the TGI [9] was over 25 µM. It also gave a GI50 [10] of 8.79 µM, a TGI [10] of over 25 µM and a GI50 [11] of over 25 µM. For the same compound, the TGI [11] was over 25 µM, the GI50 [12] was 6.24 µM and the TGI [12] was over 25 µM. For the same compound, the GI50 [13] was 3.58 µM, the TGI [13] was 9.58 µM and the GI50 [14] was 5.3 µM. The TGI [14] was over 25 µM, the GI50 [15] was 4.71 µM and the TGI [15] was 15 µM. It also gave a GI50 [16] of 9.89 µM, a TGI [16] of over 25 µM and a GI50 [17] of 14.7 µM. It also gave a TGI [17] of over 25 µM, a GI50 [18] of 2.34 µM and a TGI [18] of 13.5 µM. It also gave a GI50 [19] of 9.11 µM, a TGI [19] of over 25 µM and a GI50 [20] of 11.9 µM. The TGI [20] was over 25 µM, the GI50 [21] was 8.12 µM and the TGI [21] was over 25 µM. It also gave a GI50 [22] of 4.55 µM, a TGI [22] of over 25 µM and a GI50 [23] of 3.73 µM. For the same compound, the TGI [23] was over 25 µM, the GI50 [24] was 4.09 µM and the TGI [24] was 21.8 µM. It also gave a GI50 [25] of 2.92 µM, a TGI [25] of 6.8 µM and a GI50 [26] of 10.8 µM. For the same compound, the TGI [26] was over 25 µM, the GI50 [27] was 3.57 µM and the TGI [27] was 12.9 µM. For the same compound, the GI50 [28] was 3.1 µM, the TGI [28] was 6.58 µM and the GI50 [29] was 5.87 µM. It also gave a TGI [29] of over 25 µM, a GI50 [30] of 11.8 µM and a TGI [30] of over 25 µM. It also gave a GI50 [31] of 5.35 µM, a TGI [31] of 12.9 µM and a GI50 [32] of 5.8 µM. The TGI [32] was 18 µM, the GI50 [33] was 11.1 µM and the TGI [33] was over 25 µM. It also gave a GI50 [34] of 5.59 µM, a TGI [34] of over 25 µM and a GI50 [35] of 7.23 µM. The TGI [35] was over 25 µM, the GI50 [36] was 5.01 µM and the TGI [36] was 13.4 µM. For the same compound, the GI50 [37] was 8.93 µM, the TGI [37] was over 25 µM and the GI50 [38] was 5.68 µM. The TGI [38] was 19 µM, the GI50 [39] was 7.42 µM and the TGI [39] was over 25 µM. It also gave a GI50 [40] of 14.1 µM, a TGI [40] of over 25 µM and a GI50 [41] of 4.75 µM. For the same compound, the TGI [41] was over 25 µM, the GI50 [42] was 12.2 µM and the TGI [42] was over 25 µM. The GI50 [43] was 4.6 µM, the TGI [43] was over 25 µM and the GI50 [44] was 9.69 µM. The TGI [44] was over 25 µM, the GI50 [45] was 12.5 µM and the TGI [45] was over 25 µM. The GI50 [46] was 4.84 µM, the TGI [46] was 15.5 µM and the GI50 [47] was 5.08 µM. It also gave a TGI [47] of 12.7 µM, a GI50 [48] of 6.07 µM and a TGI [48] of 23.3 µM. For the same compound, the GI50 [49] was 6.57 µM, the TGI [49] was over 25 µM and the GI50 [50] was 9.18 µM. It also gave a TGI [50] of over 25 µM, a GI50 [51] of 8.46 µM and a TGI [51] of over 25 µM. The GI50 [52] was 12.7 µM, the TGI [52] was over 25 µM and the GI50 [53] was 3.89 µM. For the same compound, the TGI [53] was 15.5 µM, the GI50 [54] was 5.79 µM and the TGI [54] was over 25 µM. The GI50 [55] was 11.1 µM and the TGI [55] was over 25 µM.
Work on `Fc1c(F)c(F)c2c(c1F)CSc1nc3ccccc3n1-2` yielded a TGI [1] of over 100 µM, a TGI [2] of over 100 µM and a TGI [3] of over 100 µM. It also gave a TGI [4] of over 100 µM, a TGI [5] of over 100 µM and a TGI [6] of over 100 µM. It also gave a TGI [7] of over 100 µM, a TGI [8] of over 100 µM and a TGI [9] of over 100 µM. The TGI [10] was over 100 µM, the TGI [11] was over 100 µM and the TGI [12] was over 100 µM. For the same compound, the TGI [13] was over 100 µM, the TGI [15] was over 100 µM and the TGI [16] was over 100 µM. For the same compound, the TGI [17] was over 100 µM, the TGI [18] was over 100 µM and the TGI [19] was over 100 µM. For the same compound, the TGI [20] was over 100 µM, the TGI [21] was over 100 µM and the TGI [22] was over 100 µM. For the same compound, the TGI [23] was over 100 µM, the TGI [24] was over 100 µM and the TGI [25] was over 100 µM. The TGI [26] was over 100 µM, the TGI [27] was over 100 µM and the TGI [28] was over 100 µM. It also gave a TGI [29] of over 100 µM, a TGI [30] of over 100 µM and a TGI [31] of over 100 µM. The TGI [32] was over 100 µM, the TGI [33] was over 100 µM and the TGI [34] was over 100 µM. It also gave a TGI [35] of over 100 µM, a TGI [36] of over 100 µM and a TGI [37] of over 100 µM. For the same compound, the TGI [38] was over 100 µM, the TGI [56] was over 100 µM and the TGI [39] was over 100 µM. For the same compound, the TGI [40] was over 100 µM, the TGI [41] was over 100 µM and the TGI [42] was over 100 µM. For the same compound, the TGI [43] was over 100 µM, the TGI [44] was over 100 µM and the TGI [45] was over 100 µM. The TGI [46] was over 100 µM, the TGI [57] was over 100 µM and the TGI [47] was over 100 µM. It also gave a TGI [48] of over 100 µM, a TGI [49] of over 100 µM and a TGI [50] of over 100 µM. The TGI [51] was over 100 µM, the TGI [52] was over 100 µM and the TGI [53] was over 100 µM. The TGI [54] was over 100 µM and the TGI [55] was over 100 µM.
`COc1ccc(-c2nnc(COc3ccc(Cl)cc3Cl)o2)cc1OC` showed a GI50 [2] of 6.4 µM, a TGI [2] of over 100 µM and a GI50 [4] of 3.73 µM. The TGI [4] was 96.2 µM, the GI50 [5] was 5.95 µM and the TGI [5] was 96.7 µM. The GI50 [6] was over 100 µM, the TGI [6] was over 100 µM and the GI50 [8] was 2.16 µM. It also gave a TGI [8] of 4.91 µM, a GI50 [9] of 6.18 µM and a TGI [9] of over 100 µM. For the same compound, the GI50 [11] was 3.42 µM, the TGI [11] was 30.3 µM and the GI50 [15] was 13.5 µM. The TGI [15] was 70.6 µM, the GI50 [16] was over 100 µM and the TGI [16] was over 100 µM. The GI50 [20] was 6.69 µM, the TGI [20] was over 100 µM and the GI50 [22] was 4.36 µM. For the same compound, the TGI [22] was 17.6 µM, the GI50 [23] was 1.61 µM and the TGI [23] was 3.36 µM. For the same compound, the GI50 [27] was 5.52 µM, the TGI [27] was 41.1 µM and the GI50 [28] was 2.14 µM. For the same compound, the TGI [28] was 4.59 µM, the GI50 [29] was 3.15 µM and the TGI [29] was 6.61 µM. For the same compound, the GI50 [30] was 4.02 µM, the TGI [30] was over 100 µM and the GI50 [31] was 3.35 µM. The TGI [31] was over 100 µM, the GI50 [32] was over 100 µM and the TGI [32] was over 100 µM. It also gave a GI50 [33] of 3.44 µM, a TGI [33] of over 100 µM and a GI50 [34] of 3.16 µM. The TGI [34] was over 100 µM, the GI50 [38] was 3.27 µM and the TGI [38] was over 100 µM. For the same compound, the GI50 [40] was 2.78 µM, the TGI [40] was 7.22 µM and the GI50 [41] was over 100 µM. The TGI [41] was over 100 µM, the GI50 [43] was 3.28 µM and the TGI [43] was 18.3 µM. It also gave a GI50 [45] of 2.37 µM, a TGI [45] of 7.9 µM and a GI50 [46] of over 100 µM. The TGI [46] was over 100 µM, the GI50 [57] was 1.8 µM and the TGI [57] was 3.32 µM. The GI50 [47] was 7.79 µM, the TGI [47] was 37.5 µM and the GI50 [50] was 3.53 µM. It also gave a TGI [50] of over 100 µM, a GI50 [58] of 16.9 µM and a TGI [58] of 76.5 µM. It also gave a GI50 [51] of 5.45 µM, a TGI [51] of over 100 µM and a GI50 [52] of 4.22 µM. For the same compound, the TGI [52] was over 100 µM, the GI50 [53] was 8.3 µM and the TGI [53] was over 100 µM. For the same compound, the GI50 [55] was 4.39 µM and the TGI [55] was over 100 µM.
